Assay results taken from publication PMC7613620, “Reaction hijacking of tyrosine tRNA synthetase as a whole-of-life-cycle antimalarial strategy” (Science (New York, N.Y.), 2022).

Legend:
[1] = system: protein translation in P. falciparum (Cam3.II-rev) schizonts; test: Protein translation assay (O-propargyl-puromycin incorporation); assay type: cell-based, Plasmodium falciparum; details: Plasmodium falciparum, 3 h, read-out: IC50 (Translation), schizont stage Cam3.II-rev, 3 h exposure, OPP incorporation
Method: 723 then fixed for 10 minutes (4% formaldehyde/0.02% glutaraldehyde in PBS). The click reaction was
724 performed for 1 h in the presence of CuSO4 (0.1 mM), THPTA (0.5 mM) and sodium ascorbate (5 mM) to
725 bring about azide-alkyne cycloaddition to Alexa Fluor 488 azide (0.1 µM). Flow cytometry was performed
726 using the FITC and Cy™5.5 channels to detect the Alexa Fluor 488 and PI, respectively.
729 Cam 3.II_Rev (25) trophozoite-infected RBCs (25-30 h p.i.) were incubated with inhibitor for 3 h at 10%
730 hematocrit and 5% parasitemia. The RBC pellet was washed 3 x in PBS + cOmplete. Cells were centrifuged
731 at 380 x g for 5 min and the pelleted cells lysed by resuspension in PBS + 0.05% saponin for 5 min on ice.

[2] = system: P. falciparum (Cam3.II-rev) schizont stage; test: 3 h drug pulse viability assay; assay type: cell-based, Plasmodium falciparum; details: Plasmodium falciparum, 3 h, read-out: IC50 (Viability)
Method: 553 Sigma-Aldrich) for 48-72 h. For drug pulse assays, tightly synchronized parasites (1-1.5% parasitemia,
554 0.2% final hematocrit) were added to the plates and incubated for 3 h. Drugs were removed and the
555 parasitemia assessed in the trophozoite stage of the next cycle.
557 Compounds were tested against a range of drug resistant field isolates and laboratory strains using a
558 modified [3H]-hypoxanthine incorporation assay, as previously reported (46). Field isolates 7G8, Cam3.1,
559 Dd2, K1, TM90C2B and NF54 were obtained from MR4 (www.beiresources.org).
(§1) 561 Mammalian cell culture experiments
(§2) 562 The HepG2 (Human hepatocyte carcinoma) cell line was procured from ATCC (American Type
(§3) 563 Culture Collection, Manassas, USA; HB-8065) and viability assessed using Cell Titer-GLO luminescent
(§4) 564 cell viability assay reagents (Promega, catalogue number: G7570) (47, 48). For the assay, 2000 cells/well
(§5) 565 were plated in 384-well plates 24 h prior to the experiment and incubated at 37°C in a CO2 incubator. The
(§6) 566 medium was removed and cells were treated with fresh medium containing either vehicle (0.5% DMSO)
(§7) 567 or serially diluted test compounds or doxorubicin (1.3 nM to 25 µM) in a final volume of 50 µl/well and
(§8) 568 further incubated for 72 h at 37°C in a CO2 incubator.
(§9) 569 were treated with 5 µl of 1% Triton X-100 (final assay conc. 0.1%). Following incubation, 25 µl of medium
(§10) 570 was discarded and 25 µl of Cell Titer-GLO reagent was added to each well and the plate was kept on a plate
(§11) 571 shaker for 15 min at 25°C with shaking at 300 rpm. Luminescence signals were measured in a Spectramax
572 M5 reader (Molecular Devices).
574 H1650 is a human lung cancer derived ATG7-null cell line (49) that can be used to assess effects on targets
576 adenocarcinoma; bronchoalveolar carcinoma). Other cells lines used are: H460 (NCI-H460; human lung;
577 carcinoma; large cell lung cancer; ATCC: HTB-177); and HCT116 (human colon; colorectal carcinoma;
578 ATCC: CCL-247; Lot : 5056139). […]
580 inhibitors and cell viability was assessed by comparing the ATP content in compound-treated wells with […]

[3] = system: HepG2; test: HepG2 Cell Titer-GLO luminescent cell viability assay; assay type: cell-based; details: Homo sapiens, HepG2, 72 h, read-out: HepG2 (luminescence) IC50(72h)
Method: as §1, §2, §3, §4, §5, §6, §7, §8, §9, §10, §11
572 M5 reader (Molecular Devices). […]
585 37°C humidified incubator as adherent semi-confluent monolayers in complete Dulbecco’s Modified Eagle
586 Media (c-DMEM). DMEM (Gibco™, Thermo Fisher Scientific, Australia) was supplemented with 10%

[4] = molecular target: SUMO-activating enzyme (SAE) (Homo sapiens, UniProt Q9UBT2); test: biochemical; details: read-out: SAE IC50 HTRF
Text: 592 E1-E2 Transthiolation Assays
593 An Homogeneous Time-Resolved Fluorescence (HTRF) enzyme assay was employed to evaluate
594 compound activity against ATG7 as previously described (11). In this assay, a Flag-tagged ATG8 homolog
595 (GABA type A receptor-associated protein; GABARAP) is activated by ATG7 and then transthiolated to a
596 GST-tagged E2 (ATG3). The product of the enzyme reaction, Flag-GABARAP-ATG3-GST, is quantified
597 by measuring FRET between Europium-Cryptate labelled monoclonal anti-Flag M2 (CisBio International,
598 Cat# 61FG2KLB) and PHYCOLINK goat anti-GST allophycocyanin (Prozyme, PJ252p1). The activation
599 and transthiolation of ubiquitin by Ubiquitin Activating Enzyme, activation and transthiolation of NEDD8
600 by NEDD8 Activating Enzyme. […]
(§12) 606 Compounds were incubated with mature stage V gametocytes ([…], kind gift from Professor Chris Janse
(§13) 607 at Leiden University Medical Center (LUMC), the Netherlands) for 48 hours in 384 well plates before
608 gamete formation was triggered by a drop in temperature and addition of xanthurenic acid. […]
(§14) 611 Multiple data sets using different gametocyte cultures were collected on each of two separate days.
(§15) 613 Activity against exoerythrocytic stages
614 Primary human hepatocytes (H1500.H15B+ Lot No. HC10-10 Cryopreserved human hepatocytes) […]

[5] = system: P. falciparum male gametes; test: Dual gamete formation assay (male); assay type: cell-based; details: Plasmodium falciparum
Method: 604 Activity against transmissible stages of P. falciparum
605 Activity against male gametes was assessed using the dual gamete formation assay (PfDGFA)(32).
as §12, §13
608 gamete formation was triggered by a drop in temperature and addition of xanthurenic acid. Male gamete
609 exflagellation was recorded and quantified by automated microscopy. The ability of female gametes to
as §14, §15
614 Primary human hepatocytes (H1500.H15B+ Lot No. HC10-10 Cryopreserved human hepatocytes)
615 were cultured for 2 days and then overlaid with P. falciparum NF54 sporozoites and compounds.
616 Supernatant was refreshed daily with fresh compounds.

[6] = Solubility; assay type: physicochemical

SUMO-activating enzyme (SAE), sequence (Q9UBT2 whole entry): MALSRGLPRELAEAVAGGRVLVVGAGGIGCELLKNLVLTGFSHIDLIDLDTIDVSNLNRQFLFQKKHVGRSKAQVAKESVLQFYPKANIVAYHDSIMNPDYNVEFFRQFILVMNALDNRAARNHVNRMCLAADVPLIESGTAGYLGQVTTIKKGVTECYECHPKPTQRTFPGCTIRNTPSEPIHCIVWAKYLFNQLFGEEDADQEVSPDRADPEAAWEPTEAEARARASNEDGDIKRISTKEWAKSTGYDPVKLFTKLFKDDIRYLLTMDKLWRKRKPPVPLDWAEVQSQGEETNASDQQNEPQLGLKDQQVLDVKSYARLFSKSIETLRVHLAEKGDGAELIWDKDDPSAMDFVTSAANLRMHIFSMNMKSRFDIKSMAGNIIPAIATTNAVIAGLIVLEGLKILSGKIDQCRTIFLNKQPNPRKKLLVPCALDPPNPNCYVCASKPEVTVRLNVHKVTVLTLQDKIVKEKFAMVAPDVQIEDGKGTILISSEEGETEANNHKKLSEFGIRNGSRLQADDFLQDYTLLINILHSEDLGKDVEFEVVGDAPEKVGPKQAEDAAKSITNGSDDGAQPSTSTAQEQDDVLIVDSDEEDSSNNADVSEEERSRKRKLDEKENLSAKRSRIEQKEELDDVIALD
SUMO-activating enzyme (SAE), sequence (Q9UBE0 whole entry partner): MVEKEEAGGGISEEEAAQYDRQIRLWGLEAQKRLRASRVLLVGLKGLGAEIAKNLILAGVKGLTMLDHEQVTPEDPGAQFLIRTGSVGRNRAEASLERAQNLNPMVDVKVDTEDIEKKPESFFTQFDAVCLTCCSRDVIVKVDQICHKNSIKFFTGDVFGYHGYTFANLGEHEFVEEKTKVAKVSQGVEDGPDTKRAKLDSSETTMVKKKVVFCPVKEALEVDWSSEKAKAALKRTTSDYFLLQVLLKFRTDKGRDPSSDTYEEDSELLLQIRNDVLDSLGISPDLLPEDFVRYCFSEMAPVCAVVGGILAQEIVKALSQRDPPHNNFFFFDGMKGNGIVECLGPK

In the case of `Nc1ncnc2c1c(OC(F)F)nn2[C@@H]1O[C@H](COS(N)(=O)=O)[C@@H](O)[C@H]1O` [ML901], the IC50 [1] is reported as 65 nM, the IC50 [2] is reported as 56 nM and the IC50 [3] is reported as 1630 nM. The IC50 [4] was > 1000 nM, the IC50 ([5]; 48 h incubation with stage V gametocytes) was 130 ± 10 nM and the inhibition at 25 µM ([5]; at 25 µM) was 99%. The solubility [6] was > 200 µM.
